Data taken from ChEMBL document CHEMBL5728428, “Bicyclic lactams and methods of use thereof” (2021).

Target: T1, Receptor-interacting serine/threonine-protein kinase 1 (Homo sapiens, UniProt Q13546)
T1 sequence (Q13546 whole entry): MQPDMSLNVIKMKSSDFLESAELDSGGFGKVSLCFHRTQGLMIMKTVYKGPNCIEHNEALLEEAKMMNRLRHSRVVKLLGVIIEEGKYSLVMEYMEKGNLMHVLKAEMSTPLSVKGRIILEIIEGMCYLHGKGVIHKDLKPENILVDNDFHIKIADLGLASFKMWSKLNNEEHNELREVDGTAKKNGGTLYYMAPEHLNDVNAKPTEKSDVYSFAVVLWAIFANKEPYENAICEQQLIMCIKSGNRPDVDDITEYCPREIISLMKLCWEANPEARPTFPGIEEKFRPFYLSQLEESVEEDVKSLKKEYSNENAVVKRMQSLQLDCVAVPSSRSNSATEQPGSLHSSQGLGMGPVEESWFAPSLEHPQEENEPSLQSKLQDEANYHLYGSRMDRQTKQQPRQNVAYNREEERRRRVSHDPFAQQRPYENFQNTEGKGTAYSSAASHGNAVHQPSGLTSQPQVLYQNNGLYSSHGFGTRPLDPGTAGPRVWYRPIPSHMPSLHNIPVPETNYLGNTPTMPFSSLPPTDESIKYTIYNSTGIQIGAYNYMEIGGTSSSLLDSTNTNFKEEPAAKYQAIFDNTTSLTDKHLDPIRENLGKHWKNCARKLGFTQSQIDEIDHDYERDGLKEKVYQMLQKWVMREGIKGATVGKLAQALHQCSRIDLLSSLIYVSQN
Experiment: Biochemical Assay: The ability of the receptor interacting protein kinase (RIPK1) to catalyze the hydrolysis of adenosine-5′-triphosphate (ATP) is monitored using the Transcreener ADP (adenosine-5′-diphosphate) assay (BellBrook Labs).

**Q.** For `CN1C(=O)[C@@H](NC(=O)c2n[nH]c3c2CC(C)(C)OC3)COc2ccccc21`, which Ki is on record?
**A.** 469 nM
